Reference: PMC6142817, “New Urea Derivatives Are Effective Anti-senescence Compounds Acting Most Likely via a Cytokinin-Independent Mechanism” (Frontiers in Plant Science, 2018)
Values joined by “and” are separate entries in the source; they are usually repeats but may differ in a detail not shown here. Identical values can stand only once. Like-named read-outs stand apart in the source and are kept apart here.

Experiments:
[1] = test system: Triticum aestivum roots; assay: Wheat root elongation assay; type: in vivo; details: 0.1 μM, 14-day-old plants; control 10.4 cm
Description: (§1) Seeds of Triticum aestivum were surface sterilized by washing with 96% ethanol (10 min) and sown in a hydroponic growing system (Araponics, Liege, Belgium) using Hoagland's solution supplemented with either 0.1 μM TDZ, 0.1 μM ASES or 0.01% DMSO (solvent control). The plants were grown in a growth chamber at 25°C with a 16/8 h light period at 130 μM m^−2s^−1. The root lengths of at least 50 plants were measured 2 weeks after the plants had been sown. Seeds of Arabidopsis thaliana (wild-type Col-0) were surface sterilized by the same procedure as seeds of wheat and sown on vertical plates using half-strength Murashige-Skoog medium (supplemented with 0.1% sucrose and 6 g/L phytagel) containing either 0.1 μM TDZ, 0.1 μM ASES or 0.01% DMSO (solvent control). After vernalization (4 days in the dark, 4°C), the plates were transferred into a growth chamber (22°C, 16/8 light/dark, 130 μM m^−2s^−1). Root elongation was scored 2 weeks after the transfer, with measurements from at least 40 plants for each treatment. The whole experiment was repeated twice.

[2] = test system: photosystem II complexes in wheat leaves from WLSA; assay: Two-dimensional clear-native/SDS electrophoresis of membrane complexes; design: species or system Triticum aestivum; details: 10 μM, 5 days in the dark
Description: Leaves from WLSA were frozen at −80°C and then dried overnight by lyophilization at 5°C. Dried material was homogenized by bead-beating (2 × 10 s) with 2.5 mm metal beads (Mini-Beadbeater-16, BioSpec, USA). The resulting powder was mixed with a thylakoid buffer, pH 6.5, containing 25 mM MES, 10 mM MgCl2, 10 mM CaCl2, and 25% glycerol and bead-beaten (4 × 10 s). The obtained cell extract was centrifuged, after which the insoluble fraction was transferred into a new tube and solubilized with 2% dodecyl-β-maltoside for 15 min on ice. The solution was centrifuged at 30,000 × g for 10 min to remove any non-solubilized cell debris and the obtained solubilized membrane proteins were separated by electrophoresis using a 4 to 12% polyacrylamide clear native gel (Wittig et al., [2007]). Individual components of protein complexes were resolved by incubating the gel strip from the first electrophoresis in 2% SDS and 1% dithiothreitol for 30 min at room temperature, after which the proteins were separated in a second dimension by SDS-electrophoresis using a denaturing 12 to 20% polyacrylamide gel containing 7 M urea (Dobáková et al., [2009]). Proteins were stained with Coomassie Brilliant Blue, and individual protein components were identified by comparing the protein pattern with previously published results (Pagliano et al., [2012]).

[3] = test system: detached wheat leaves (membrane lipid peroxidation); assay: TBARS content (lipid peroxidation) in leaves from WLSA; type: cell-based, Triticum aestivum; details: 5 days in the dark, DMSO control = 100%
Description: Four leaf segments of combined weight of 100 mg from WLSA (5 days in the dark) were used for the determination of TBARS. Each sample was done in five repetitions (5 × 100 mg). The peroxidation of leaf membrane lipids was determined as described by Kováčik et al. ([2006]), with minor modifications—wheat leaves were extracted with 80% methanol and the trichloroacetic acid content was decreased to 0.1%.

[4] = test system: Arabidopsis thaliana roots; assay: Arabidopsis root elongation assay; type: in vivo, Arabidopsis thaliana (wild-type Col-0); details: 0.1 μM, 14 days; for Arabidopsis root growth (length): control 3.5 cm
Description: as §1

[5] = test system: detached Arabidopsis leaves (chlorophyll loss in the dark); assay: Arabidopsis leaf senescence assay; type: cell-based, Arabidopsis thaliana; details: for % of the chlorophyll retained: 0.01 μM; for % of the chlorophyll retained / % more of chlorophyll retained than DMSO (negative control): 12 days in the dark; for % more of chlorophyll retained than DMSO (negative control): 1 μM; for times more effective than BA in Arabidopsis leaf senescence assay: compared to the activity of BA in 1 μM
Description: (§2) Amaranthus assay evaluates the induction of betacyanin synthesis in Amaranthus (Amaranthus caudatus var. atropurpurea) cotyledons, which is induced by cytokinins (Bamberger and Mayer, [1960]). The WLSA evaluates the ability of compounds to retard chlorophyll degradation in excised wheat leaves that are kept in the dark. The wheat leaf segments (Triticum aestivum cv. Hereward) were used in all other experiments requiring wheat. Arabidopsis (Arabidopsis thaliana) leaf senescence assay was performed with detached leaves from 30-day-old plants, which were grown in soil in phytotron under standard conditions (Rivero et al., [2014]). Four leaves of a combined weight of 60 mg were placed in a six-well plate and stored in the dark for 12 days at 22°C. The leaves (except the fresh control leaves) floated on water solutions of tested compounds. Fresh control leaves were leaves detached from a plant and immediately used for chlorophyll determination. The duration of the senescence assay of Arabidopsis leaves was prolonged to highlight the difference in chlorophyll content between a negative control and treatments. Arabidopsis leaves were losing chlorophyll more slowly than wheat leaves. Chlorophyll extraction and spectrophotometric determination of its content was done according to Holub et al. ([1998]).

[6] = test system: Amaranthus caudatus cotyledon-hypocotyl explants; assay: Amaranthus bioassay (betacyanin synthesis); type: cell-based, Amaranthus caudatus var. atropurpurea; details: for EC50: Amaranthus caudatus
Description: Tobacco callus, Amaranthus and Wheat leaf senescence assay (WLSA) were performed as described by Holub et al. ([1998]) including the number of repetitions in each assay. An exception to the published protocols was that the tobacco callus assay was performed in 6-well microtiter plates (with each well containing 3 ml of Murashige Skoog medium into which 0.1 g of callus was added). Each compound was tested at least twice in each assay and in a wider concentration range to obtain concentration-dependent activity curves. IC50 means compound concentration at which chlorophyll degradation is inhibited by 50% and EC50 means half the maximal effective concentration.
as §2

## COCCNC(=O)Nc1cnns1 [ASES, 1-(2-methoxy-ethyl)-3-1,2,3-thiadiazol-5-yl-urea]
[1]
  wheat root length: 11.0 cm
[2]
  level of PSII-LHCII supercomplexes: even higher level of PSII-LHCII supercomplexes than we observed for fresh control
  membrane complexes / level of dimeric PSII in senescent leaves: very similar to those of the fresh control, including high levels of dimeric PSII
[3]; 0.01 μM
  TBARS content (relative %): 105 (±5) %
[3]; 0.1 μM
  TBARS content (relative %): 91 (±10) %
[3]; 1 μM
  TBARS content (relative %): 47 (±4) %
[3]; 10 μM
  TBARS content (relative %): 31 (±5) %
[3]; 100 μM, fresh control = 0
  TBARS content (relative %): 24 (±6) % and 24%
[4]
  Arabidopsis root growth (length): 4.2 cm
[5]
  % of the chlorophyll retained: more than 55%
  % more of chlorophyll retained than DMSO (negative control): 96%
  times more effective than BA in Arabidopsis leaf senescence assay: approximately 100 times
[6]
  fold lower potency than BA in inducing betacyanin: ~5 fold
  fold lower potency than TDZ in inducing betacyanin: approximately 1,000 fold
[6]; betacyanin synthesis, N.A. = not active, read-out: Amaranthus bioassay (EC50)
  EC50: 4 µM

## O=C(Nc1ccccc1)Nc1cnns1 [TDZ, 1-phenyl-3-(1,2,3-thiadiazol-5-yl)urea, reference compound]
[1]
  wheat root length: 3.2 cm
[2]
  level of PSII-LHCII supercomplexes: completely lost
[3]; 0.01 μM
  TBARS content (relative %): 101 (±5) %
[3]; 0.1 μM
  TBARS content (relative %): 80 (±3) %
[3]; 1 μM
  TBARS content (relative %): 71 (±6) %
[3]; 10 μM
  TBARS content (relative %): 68 (±8) %
[3]; 100 μM, fresh control = 0
  TBARS content (relative %): 55 (±10) %
[4]
  reduction of Arabidopsis root growth compared to the control: 50%
  Arabidopsis root growth (length): 1.7 cm
[5]
  % of the chlorophyll retained: more than 55%
  % more of chlorophyll retained than DMSO (negative control): 85%
  times more effective than BA in Arabidopsis leaf senescence assay: approximately 100 times
[6]
  activity in Amaranthus assay, fold exceeding all other cytokinins: at least 100 fold
[6]; read-out: Amaranthus bioassay (EC50, μM)
  EC50: 0.004 µM
